Like-named read-outs stand apart in the source and are kept apart here.
Key:
[1] = set-up: species or system mice; conditions: mouse, in vivo; for Bioavailability / Plasma level of non-ester (Compound [II]) 2 hr / AUC: 120 min; for Plasma level of non-ester (Compound [II]) 0.25 hr / Plasma level of non-ester (Compound [II]) 0.5 hr / Plasma level of non-ester (Compound [II]) 1.0 hr / Plasma level of non-ester (Compound [II]) 2 hr / AUC: po, 100 mg/kg; for Plasma level of non-ester (Compound [II]) 0.25 hr: 15 min; for Plasma level of non-ester (Compound [II]) 0.5 hr: 30 min; for Plasma level of non-ester (Compound [II]) 1.0 hr: 60 min
Procedure: The compounds of Examples (compound Nos. 1 and 2) and, as a control compound, the pivaloyloxymethyl ester of compound [II] (hereinafter referred to briefly as compound A) are administered orally to mice, each compound to one animal, in the dose of 100 mg/kg in terms of the non-ester, i.e. compound [II]. […] As a control, compound [II] is subcutaneously administered to a mouse and the AUC value is calculated as above.

[2] = tested on: Klebsiella pneumoniae; conditions: Antimicrobial Agent and Chemotherapy 14, 557-568 (1978); cited from earlier work
[3] = tested on: Proteus vulgaris; conditions: Antimicrobial Agent and Chemotherapy 14, 557-568 (1978); cited from earlier work
[4] = tested on: Proteus mirabilis; conditions: Antimicrobial Agent and Chemotherapy 14, 557-568 (1978); cited from earlier work
[5] = tested on: Proteus morganii; conditions: Antimicrobial Agent and Chemotherapy 14, 557-568 (1978); cited from earlier work
[6] = tested on: Staphylococcus aureus; conditions: Antimicrobial Agent and Chemotherapy 14, 557-568 (1978); cited from earlier work
[7] = tested on: Escherichia coli; conditions: Antimicrobial Agent and Chemotherapy 14, 557-568 (1978); cited from earlier work

| Structure (SMILES) | Bioavailability [1] | Plasma level of non-ester (Compound [II]) 0.25 hr [1] | Plasma level of non-ester (Compound [II]) 0.5 hr [1] | Plasma level of non-ester (Compound [II]) 1.0 hr [1] | Plasma level of non-ester (Compound [II]) 2 hr [1] | Bioavailability ([1]; sc) | antibacterial activity [2] | antibacterial activity [3] | antibacterial activity [4] | antibacterial activity [5] | antibacterial activity [6] | antibacterial activity [7] | AUC [1] |
| --- | --- | --- | --- | --- | --- | --- | --- | --- | --- | --- | --- | --- | --- |
| CN(C)CCn1nnnc1SCC1=C(C(=O)OCOC(=O)C(C)(C)C)N2C(=O)[C@@H](NC(=O)Cc3csc(N)n3)[C@H]2SC1 [A, pivaloyloxymethyl ester of compound [II]] | 41.8% | 21000 ng/mL | 16200 ng/mL | 6100 ng/mL | 600 ng/mL | – | – | – | – | – | – | – | – |
| CN(C)CCn1nnnc1SCC1=C(C(=O)O)N2C(=O)[C@@H](NC(=O)Cc3csc(N)n3)[C@H]2SC1 [Compound [II], 7β-[2-(2-aminothiazol-4-yl)acetamido]-3-[[[1-(2-dimethylaminoethyl)-1H-tetrazol-5-yl]thio]methyl]ceph-3-em-4-carboxylic acid] | – | – | – | – | – | 100% | potent antibacterial activity | potent antibacterial activity | potent antibacterial activity | potent antibacterial activity | potent antibacterial activity | potent antibacterial activity | – |
| CC(C)CC(=O)OC(OC(=O)C1=C(CSc2nnnn2CCN(C)C)CS[C@@H]2[C@H](NC(=O)Cc3csc(N)n3)C(=O)N12)C(C)C.Cl.Cl (stereo partly drawn) [Compound No. 1, 1-(3-Methylbutyryloxy)-2-methylpropyl 7β-[2-(2-aminothiazol-4-yl)acetamido]-3-[[[1-(2-dimethylaminoethyl)-1H-tetrazol-5-yl]thio]methyl]ceph-3-em-4-carboxylate dihydrochloride] | 91.0% | 55400 ng/mL | 37000 ng/mL | 8460 ng/mL | 2500 ng/mL | – | – | – | – | – | – | – | 35300 ng·h/mL |
| CCCC(OC(=O)CC(C)C)OC(=O)C1=C(CSc2nnnn2CCN(C)C)CS[C@@H]2[C@H](NC(=O)Cc3csc(N)n3)C(=O)N12.Cl.Cl (stereo partly drawn) [Compound No. 2, 1-(3-Methylbutyryloxy)butyl 7β-[2-(2-aminothiazol-4-yl)acetamido]-3-[[[1-(2-dimethylaminoethyl) -1H-tetrazol-5-yl]thio]methyl]ceph-3-em-4-carboxylate dihydrochloride] | 81.4% | 74300 ng/mL | 21600 ng/mL | 5360 ng/mL | 1800 ng/mL | – | – | – | – | – | – | – | 31600 ng·h/mL |
